Assay [1] has as its target GST-tagged KRAS-G12D (2-169) (Homo sapiens, UniProt P01116, G12D). In words: Nucleotide exchange assay (NEA), SOS-mediated, HTRF, KRAS G12D. In kind it is biochemical. Particulars: Table 4; IC50 extracted at 30 min; 20 nM SOScat; read-out: NEA G12D IC50. The essentials:
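SOS1cat-driven loading of fluorescent GTP-DY-647P1 (150 nM) onto GST-KRAS-G12D (2-169, 0.25 nM) read by time-resolved FRET; SOScat 20 nM, compound preincubated with KRAS 1 h at RT. Signal blanked to no-SOS reactions, normalized to DMSO; IC50 fitted from the 30-min read.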
(In general: In TR-FRET formats the signal depends on donor and acceptor labels being close together.)

Assay [2] has as its system phospho-ERK in GP2D (KRAS-G12D) cells. In words: pERK In Cell Western (ICW) assay (Method B), GP2D. In kind it is cell-based. To be noted: GP2d, 3 h, Table 4. The protocol:
(§1) pERK ICW is a high throughput screening assay to evaluate the cellular potency of mutant KRAS small molecule inhibitors. KRAS mutant cell lines AGS, GP2D (KRAS-G12D) as well as SW620 (KRAS-G12V) were purchased from ATCC and maintained respectively in RPMI/DMEM/RPMI medium supplemented with 10% fetal bovine serum.
(§2) Cells grown in exponential phase were trypsinized, resuspended in fresh media, and viable cells were counted using a cell counter with Trypan Blue (BioRad TC20). Cells were seeded into 384-well plate (Greiner 781091) at density of 5,000 cells/well for AGS and 10,000 cells/well for GP2D/SW620 and allowed to grow overnight in a 37° C. CO2 incubator. The next day, compounds were dispensed into wells with a ½ log, 9-point serial dilution using a Tecan D300e dispenser and incubated for 3 hours in a 37° C. CO2 incubator. Cells were then fixed with paraformaldehyde (Electron Microscopy Sciences, 15710, 4% final concentration) for 30 min, permeabilized with wash buffer (1×PBS+0.1% Triton X-100) for 30 min and blocked with Odyssey blocking buffer (Li—COR 927-70001) for 1 hour, all at room temperature (RT). Phospho-ERK antibody (CST 4370L) was diluted 1:500 in Odyssey T20 (PBS) antibody diluent (Li—COR 927-75001) and incubated with cells overnight at 4° C. The next day, plates were washed 5× with wash buffer, incubated with IRDye 800 CW, Goat anti-Rabbit secondary antibody (Li—COR 926-32211, 1:800) and DRAQ5 (CST 4084L, 1:5,000) diluted in Odyssey T20 (PBS) antibody diluent for 1 hour, washed 5×, and imaged on an Odyssey CLx imaging system.
(§3) For data analysis, signal intensities from 800 (phosphor-ERK) and 700 (DRAQ5) channels were extracted, and phospho-ERK signals were normalized to DRAQ5 signals for each well and percent of blank control values were computed. Data were then imported into Graphpad Prism to compute half-maximal inhibitory concentrations (IC50) using a 4-parameter variable slope model. Z-factor for each plate was computed from signals derived from wells treated with either DMSO or 5 μM of control compound. AGS pERK ICW (Method B) IC50 (uM) values of selected compounds are depicted in Table 2 with compounds having a value ≥0.001 uM to 0.01 uM as ++++; ≥0.01 uM to 0.1 uM as +++; ≥0.1 uM to 1 uM as ++; ≥1 uM to 10 uM as + and ≥10 uM as NA.

Assay [3] concerns the target GST-tagged KRAS-G12V (2-169) (Homo sapiens, UniProt P01116, G12V). In words: Nucleotide exchange assay (NEA), SOS-mediated, HTRF, KRAS G12V. In kind it is biochemical. Particulars: Table 4; IC50 extracted at 90 min; 80 nM SOS. The essentials: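 Exchange onto fluorescent GTP-DY-647P1 (150 nM final) catalysed by 80 nM SOS1cat was followed by Tb-anti-GST HTRF at RT for up to 90 min, after 1 h compound pre-incubation with 0.25 nM GST-tagged KRAS-G12V (2-169), pH 7.3. DMSO = 0%, no-SOS blank = 100%; 4-parameter IC50 taken at 90 min.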

Assay [4] deals with phospho-ERK in SW620 (KRAS-G12V) cells. In words: pERK In Cell Western (ICW) assay (Method B), SW620. In kind it is cell-based. Particulars: Homo sapiens, SW-620, 3 h, Table 4. The protocol: as §1, §2, §3

By IC50 is commonly meant the point on the concentration scale where inhibition reaches its midpoint.

Chain of GST-tagged KRAS-G12D (2-169) (P01116 2-169 isoform P01116-2 G12D): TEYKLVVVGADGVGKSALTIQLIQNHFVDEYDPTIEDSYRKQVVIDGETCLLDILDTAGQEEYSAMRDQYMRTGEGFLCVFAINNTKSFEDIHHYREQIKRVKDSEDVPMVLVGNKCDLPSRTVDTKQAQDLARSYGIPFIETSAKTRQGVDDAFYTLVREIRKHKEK
Chain of GST-tagged KRAS-G12V (2-169) (P01116 2-169 isoform P01116-2 G12V): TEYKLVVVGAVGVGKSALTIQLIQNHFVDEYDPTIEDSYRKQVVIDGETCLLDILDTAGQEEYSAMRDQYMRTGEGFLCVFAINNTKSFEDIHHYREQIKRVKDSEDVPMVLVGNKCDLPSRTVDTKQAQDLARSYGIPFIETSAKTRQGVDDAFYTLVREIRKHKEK

For the compound `C[C@@H]1[C@H](CO)CCCN1c1nc(OC[C@@]23CCCN2C[C@H](F)C3)nc(N2CC3(CCc4sc(N)c(C#N)c43)C2)n1` (racemic) [Compound 24, 2-amino-1′-[4-[[(2R,8S)-2-fluoro-1,2,3,5,6,7-hexahydropyrrolizin-8-yl]methoxy]-6-[rac-(2R,3R)-3-(hydroxymethyl)-2-methyl-1-piperidyl]-1,3,5-triazin-2-yl]spiro[5,6-dihydrocyclopenta[b]thiophene-4,3′-azetidine]-3-carbonitrile], the IC50 in assay [1] lay in the range of 0.1 to 1 µM; in assay [2], 1 to 20 µM; in assay [3], 0.1 to 1 µM.
As for `N#Cc1c(N)sc2c1C1(CC2)CN(c2nc(OC[C@@]34CCCN3C[C@H](F)C4)nc(N3C[C@H](O)C[C@@H](O)C3)n2)C1` [Compound 26, 2-amino-1′-[4-[(3R,5R)-3,5-dihydroxy-1-piperidyl]-6-[[(2R,8S)-2-fluoro-1,2,3,5,6,7-hexahydropyrrolizin-8-yl]methoxy]-1,3,5-triazin-2-yl]spiro[5,6-dihydrocyclopenta[b]thiophene-4,3′-azetidine]-3-carbonitrile], the results for the IC50 in assay [1], in assay [2] and in assay [3] were 0.01 to 0.1 µM, no less than 20 µM and 0.01 to 0.1 µM, respectively.
Regarding `N#CNC1CCCN(c2nc(OC[C@@]34CCCN3C[C@H](F)C4)nc(N3CC4(CCc5sc(N)c(C#N)c54)C3)n2)C1` (stereo partly drawn) [Compound 33, [1-[4-(2-amino-3-cyano-spiro[5,6-dihydrocyclopenta[b]thiophene-4,3′-azetidine]-1′-yl)-6-[[(2R,8S)-2-fluoro-1,2,3,5,6,7-hexahydropyrrolizin-8-yl]methoxy]-1,3,5-triazin-2-yl]-3-piperidyl]cyanamide], the IC50 in assay [1] was 0.01 to 0.1 µM; in assay [2], 0.1 to 1 µM; in assay [3], less than 0.01 µM.
Consider `N#CCC1C=C(F)CN(c2nc(OC[C@@]34CCCN3C[C@H](F)C4)nc(N3CC4(CCc5sc(N)c(C#N)c54)C3)n2)C1` (stereo partly drawn) [Compound 25, 2-amino-1′-[4-[3-(cyanomethyl)-5-fluoro-3,6-dihydro-2H-pyridin-1-yl]-6-[[(2R,8S)-2-fluoro-1,2,3,5,6,7-hexahydropyrrolizin-8-yl]methoxy]-1,3,5-triazin-2-yl]spiro[5,6-dihydrocyclopenta[b]thiophene-4,3′-azetidine]-3-carbonitrile], for which the IC50 in assay [1] fell in the range of 0.01 to 0.1 µM; in assay [2] it was 0.1 to 1 µM; in assay [3], 0.01 to 0.1 µM.
`N#Cc1c(N)sc2c1C1(CC2)CN(c2nc(OC[C@@]34CCCN3C[C@H](F)C4)nc(N3CCc4noc(N)c4C3)n2)C1` [Compound 31, 2-amino-1′-[4-(3-amino-6,7-dihydro-4H-isoxazolo[4,3-c]pyridin-5-yl)-6-[[(2R,8S)-2-fluoro-1,2,3,5,6,7-hexahydropyrrolizin-8-yl]methoxy]-1,3,5-triazin-2-yl]spiro[5,6-dihydrocyclopenta[b]thiophene-4,3′-azetidine]-3-carbonitrile]: the values for the IC50 in assay [1], in assay [2] and in assay [3] were 0.01 to 0.1 µM, 0.1 to 1 µM and 0.1 to 1 µM, respectively.
Consider `C[C@@]1(O)CCCN(c2nc(OC[C@@]34CCCN3C[C@H](F)C4)nc(N3CC4(CCCc5sc(N)c(C#N)c54)C3)n2)C1` [Compound 30, 2-amino-1′-[4-[[(2R,8S)-2-fluoro-1,2,3,5,6,7-hexahydropyrrolizin-8-yl]methoxy]-6-[(3R)-3-hydroxy-3-methyl-1-piperidyl]-1,3,5-triazin-2-yl]spiro[6,7-dihydro-5H-benzothiophene-4,3′-azetidine]-3-carbonitrile], for which the IC50 is 0.01 to 0.1 µM in assay [1], 0.1 to 1 µM in assay [2] and 0.01 to 0.1 µM in assay [3].
For `CN(C)CC1(COc2nc(N3CC4(CCc5sc(N)c(C#N)c54)C3)nc(N3CCC[C@@](C)(O)C3)n2)CC1(F)F` (stereo partly drawn) [Compound 34, 2-amino-1′-[4-[[1-[(dimethylamino)methyl]-2,2-difluoro-cyclopropyl]methoxy]-6-[(3R)-3-hydroxy-3-methyl-1-piperidyl]-1,3,5-triazin-2-yl]spiro[5,6-dihydrocyclopenta[b]thiophene-4,3′-azetidine]-3-carbonitrile], the IC50 in assay [1] is less than 0.01 µM; in assay [2] it was 0.01 to 0.1 µM; in assay [3] it was less than 0.01 µM.
With `C[C@H](c1cccnc1N)N(C)c1nc(OC[C@@]23CCCN2C[C@H](F)C3)nc(N2CCC(c3c(Cl)sc(N)c3C#N)C2)n1` (stereo partly drawn) [Compound 191, 2-amino-4-[1-[4-[[(1R)-1-(2-amino-3-pyridyl)ethyl]-methyl-amino]-6-[[(2R,8S)-2-fluoro-1,2,3,5,6,7-hexahydropyrrolizin-8-yl]methoxy]-1,3,5-triazin-2-yl]pyrrolidin-3-yl]-5-chloro-thiophene-3-carbonitrile], the IC50 in assay [1] is 0.01 to 0.1 µM; in assay [4], 0.01 to 0.1 µM; in assay [3], less than 0.01 µM.
As to `C#CCN(c1nc(OC[C@@]23CCCN2C[C@H](F)C3)nc(N2CC3(C2)SCc2sc(N)c(C#N)c23)n1)C1(C#N)CC1` [Compound 247, 2-amino-1′-[4-[(1-cyanocyclopropyl)-prop-2-ynyl-amino]-6-[[(2R,8S)-2-fluoro-1,2,3,5,6,7-hexahydropyrrolizin-8-yl]methoxy]-1,3,5-triazin-2-yl]spiro[6H-thieno[3,4-b]thiophene-4,3′-azetidine]-3-carbonitrile], the IC50 in assay [1] was less than 0.01 µM; in assay [4], 0.1 to 1 µM; in assay [3] it was less than 0.01 µM.
Regarding `C#CCN(CC#N)c1nc(OC[C@@]23CCCN2C[C@H](F)C3)nc(N2CC3(C2)SCc2sc(N)c(C#N)c23)n1` [Compound 243, 2-amino-1′-[4-[cyanomethyl(prop-2-ynyl)amino]-6-[[(2R,8S)-2-fluoro-1,2,3,5,6,7-hexahydropyrrolizin-8-yl]methoxy]-1,3,5-triazin-2-yl]spiro[6H-thieno[3,4-b]thiophene-4,3′-azetidine]-3-carbonitrile], the IC50 in assay [1] was less than 0.01 µM; in assay [4] it was 0.1 to 1 µM; in assay [3] it was less than 0.01 µM.
Turning to `N#Cc1c(N)sc2c1C1(CN(c3nc(OC[C@@]45CCCN4C[C@H](F)C5)nc(N(CCO)CC4(C#N)CC4)n3)C1)SC2` [Compound 239, 2-amino-1′-[4-[(1-cyanocyclopropyl)methyl-(2-hydroxyethyl)amino]-6-[[(2R,8S)-2-fluoro-1,2,3,5,6,7-hexahydropyrrolizin-8-yl]methoxy]-1,3,5-triazin-2-yl]spiro[6H-thieno[2,3-c]thiophene-4,3′-azetidine]-3-carbonitrile], the IC50 is less than 0.01 µM in assay [1], 0.1 to 1 µM in assay [4] and less than 0.01 µM in assay [3].
As for `CC(c1c[nH]nn1)N(CC#N)c1nc(OC[C@@]23CCCN2C[C@H](F)C3)nc(N2CC3(C2)SCc2sc(N)c(C#N)c23)n1` (stereo partly drawn) [Compound 250, 2-amino-1′-[4-[cyanomethyl-[1-(1H-triazol-4-yl)ethyl]amino]-6-[[(2R,8S)-2-fluoro-1,2,3,5,6,7-hexahydropyrrolizin-8-yl]methoxy]-1,3,5-triazin-2-yl]spiro[6H-thieno[3,4-b]thiophene-4,3′-azetidine]-3-carbonitrile], the IC50 in assay [1] was less than 0.01 µM; in assay [4], 0.1 to 1 µM; in assay [3] it was less than 0.01 µM.
For the compound `CCN(c1nc(OC[C@@]23CCCN2C[C@H](F)C3)nc(N2CC3(C2)SCc2sc(N)c(C#N)c23)n1)C1(C#N)CC1` [Compound 238, 2-amino-1′-[4-[(1-cyanocyclopropyl)-ethyl-amino]-6-[[(2R,8S)-2-fluoro-1,2,3,5,6,7-hexahydropyrrolizin-8-yl]methoxy]-1,3,5-triazin-2-yl]spiro[6H-thieno[3,4-b]thiophene-4,3′-azetidine]-3-carbonitrile], the IC50 was less than 0.01 µM in assay [1], 0.01 to 0.1 µM in assay [4] and less than 0.01 µM in assay [3].

Values taken from patent US12421254B2, “KRAS modulators and uses thereof” (Quanta Therapeutics, Inc., priority 2023, dated 2025).
